From the supplement of paper PMC10307832

Legend:
Assay in all cases: relative viability (nuclei count vs DMSO), 5 days (fraction); higher = more cells survive
Venetoclax + Alpelisib = compound: CC1(C)CCC(CN2CCN(c3ccc(C(=O)NS(=O)(=O)c4ccc(NCC5CCOCC5)c([N+](=O)[O-])c4)c(Oc4cnc5[nH]ccc5c4)c3)CC2)=C(c2ccc(Cl)cc2)C1 [Venetoclax] + Cc1nc(NC(=O)N2CCC[C@H]2C(N)=O)sc1-c1ccnc(C(C)(C)C(F)(F)F)c1 [Alpelisib] (partner 2 µM)
How it was run: (§1)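 Five library-drug doses in √10 steps were combined with a fixed anchor-drug dose, or a single drug was given alone, by pin tool to lung cancer cell lines in 1536-well plates the day after seeding. Nuclei were stained and counted after 5 days. Relative viability is the nuclei count in treated wells over that in vehicle wells, taken as the median of duplicate plates.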

[1] = compound: Cn1cnc2c(F)c(Nc3ccc(Br)cc3Cl)c(C(=O)NOCCO)cc21 [Selumetinib] + CC(=O)c1c(C)c2cnc(Nc3ccc(N4CCNCC4)cn3)nc2n(C2CCCC2)c1=O [Palbociclib] (partner 0.5 µM)
How it was run: as §1

Selumetinib + Bortezomib = compound: Cn1cnc2c(F)c(Nc3ccc(Br)cc3Cl)c(C(=O)NOCCO)cc21 [Selumetinib] + CC(C)C[C@H](NC(=O)[C@H](Cc1ccccc1)NC(=O)c1cnccn1)B(O)O [Bortezomib] (partner 0.002 µM)
How it was run: as §1

Selumetinib + AZD7762 = compound: Cn1cnc2c(F)c(Nc3ccc(Br)cc3Cl)c(C(=O)NOCCO)cc21 [Selumetinib] + NC(=O)Nc1cc(-c2cccc(F)c2)sc1C(=O)N[C@H]1CCCNC1 [AZD7762] (partner 0.2 µM)
How it was run: as §1

Cell Line	relative viability (Venetoclax + Alpelisib; first compound 0.01 µM)	relative viability (Venetoclax + Alpelisib; first compound 0.03162 µM)	relative viability (Venetoclax + Alpelisib; first compound 0.1 µM)	relative viability (Venetoclax + Alpelisib; first compound 0.3162 µM)	relative viability (Venetoclax + Alpelisib; first compound 1 µM)	relative viability ([1]; first compound 0.02 µM)	relative viability ([1]; first compound 0.06325 µM)	relative viability ([1]; first compound 0.2 µM)	relative viability ([1]; first compound 0.6325 µM)	relative viability (Selumetinib + Bortezomib; first compound 0.02 µM)	relative viability (Selumetinib + Bortezomib; first compound 0.06325 µM)	relative viability (Selumetinib + Bortezomib; first compound 0.2 µM)	relative viability (Selumetinib + Bortezomib; first compound 0.6325 µM)	relative viability (Selumetinib + AZD7762; first compound 0.02 µM)	relative viability (Selumetinib + AZD7762; first compound 0.06325 µM)	relative viability (Selumetinib + AZD7762; first compound 0.2 µM)	relative viability (Selumetinib + AZD7762; first compound 0.6325 µM)
LC-2-ad	0.839	0.906	1.02	0.871	0.905	0.504	0.547	0.492	0.453	1.05	1.01	0.831	0.943	0.687	0.633	0.572	0.477
NCI-H441	0.828	0.705	0.821	0.899	0.608	0.168	0.154	0.157	0.139	0.658	0.345	0.544	0.506	1.07	0.974	1.01	0.69
HOP-62	0.924	1.21	1.08	1.07	0.9	0.469	0.489	0.458	0.37	1.06	0.779	0.496	0.475	0.591	0.542	0.5	0.241
NCI-H1755	0.968	0.912	0.842	0.962	0.893	0.41	0.437	0.444	0.422	0.952	0.859	0.834	0.914	0.522	0.352	0.393	0.451
LOU-NH91	0.653	0.802	0.689	0.791	0.759	0.583	0.611	0.546	0.535	0.465	0.479	0.476	0.479	0.754	0.758	0.696	0.733
LU99A	0.432	0.545	0.548	0.522	0.505	0.427	0.418	0.375	0.425	1.35	1.05	1.18	1.37	0.461	0.367	0.397	0.342
PC-14	0.882	0.931	1.05	0.952	0.776	0.482	0.369	0.363	0.309	0.889	0.815	0.926	0.766	0.364	0.397	0.276	0.313
NCI-H2126	0.807	0.728	0.759	0.819	0.796	0.333	0.265	0.35	0.333	1.09	1.01	0.984	0.996	1.03	0.981	0.987	0.903
